ChEMBL document CHEMBL6092194, “Development of membrane-targeting chalcone derivatives as antibacterial agents against multidrug-resistant bacteria” (Eur J Med Chem, 2024)
Calls of active or inactive are those of the source. The rule behind the calls is not given here.

Key:
Escherichia coli [1] = assay: Bactericidal activity against Escherichia coli ATCC25922 in presence of 50% plasma; assay type: functional
Escherichia coli [2] = assay: Induction of morphological changes in Escherichia coli ATCC25922 assessed as collapse of cell membrane by scanning electron microscopic analysis; assay type: functional, organism-based
Escherichia coli [3] = assay: Antibacterial activity against Escherichia coli ATCC25922 infected in sepsis mouse model assessed as log reduction in bacterial load in liver at 5 mg/kg pre-infected with bacteria for 1 hrs followed by compound administration at 12 hrs interval for 2 days relative to control; assay type: functional; details: time 2 day
Pseudomonas aeruginosa = assay: Antibacterial activity against penicillin-susceptible Pseudomonas aeruginosa ATCC27853 by broth microdilution method; assay type: functional
Staphylococcus aureus [4] = assay: Selectivity ratio of MBC for Staphylococcus aureus ATCC43300 in presence of 50% blood to MBC for Staphylococcus aureus ATCC43300 in Mueller Hinton Broth; assay type: functional
Escherichia coli [5] = assay: Bactericidal activity against Escherichia coli ATCC25922 in presence of 50% serum; assay type: functional
Cell membrane [6] = assay: Induction of cytoplasmic membrane depolarization in Escherichia coli ATCC25922 assessed as increase in fluorescence intensity measured after 24 mins by DiSC3(5) dye-based fluorescence assay; details: dose 0.5-8 µg/ml
Cell membrane [7] = assay: Induction of inner membrane permeabilization in Staphylococcus aureus ATCC43300 assessed as increase in fluorescence intensity incubated for 20 mins by PI uptake assay; assay type: subcellular; details: dose 0.5-8 µg/ml
Staphylococcus aureus [8] = assay: Bactericidal activity against Staphylococcus aureus ATCC43300 assessed as elimination of bacteria at 8 microg/ml measured within 6 hrs by time-kill kinetics assay relative to control; assay type: functional; details: dose 8 µg/ml
Staphylococcus aureus [9] = assay: Antibacterial activity against Staphylococcus aureus ATCC43300 infected in sepsis mouse model assessed as reduction in liver inflammation at 5 to 10 mg/kg pre-infected with bacteria for 1 hrs followed by compound administration at 12 hrs interval for 2 days by H and E staining based analysis; assay type: functional, organism-based; details: dose 5-10 mg/kg, time 2.0 day
Staphylococcus aureus [10] = assay: Antibacterial activity against Staphylococcus aureus ATCC43300 infected in sepsis mouse model assessed as reduction in inflammatory cell infiltration in liver at 10 mg/kg pre-infected with bacteria for 1 hrs followed by compound administration at 12 hrs interval for 2 days by H and E staining based analysis; assay type: functional, organism-based; details: time 2.0 day
Cell membrane [11] = assay: Induction of outer membrane permeabilization in Escherichia coli ATCC25922 assessed as fold increase in fluorescence intensity at 8 microg/ml incubated for 20 mins by NPN uptake assay; assay type: subcellular; details: dose 8.0 µg/ml
[12] = Toxicity in BALB/c mouse assessed as survival rate at 20 to 50 mg/kg, ip administered for 7 days relative to control; assay type: organism-based; details: in vivo, dose 20-50 mg/kg, time 7 day
Bacillus subtilis = assay: Antibacterial activity against penicillin-susceptible Bacillus subtilis ATCC9372 by broth microdilution assay; assay type: functional
Staphylococcus aureus [13] = assay: Bactericidal activity against Staphylococcus aureus ATCC43300 assessed as log reduction in bacterial colony at 8 microg/ml measured upto 24 hrs by time-kill kinetics assay; assay type: functional; details: dose 8 µg/ml
Cell membrane [14] = assay: Disruption of cell membrane in Staphylococcus aureus ATCC43300 assessed as fold increase in DNA leakage at 8 microg/ml relative to control; assay type: subcellular; details: dose 8.0 µg/ml
Cell membrane [15] = assay: Induction of cytoplasmic membrane depolarization in Staphylococcus aureus ATCC43300 assessed as increase in fluorescence intensity measured after 24 mins by DiSC3(5) dye-based fluorescence assay; details: dose 0.5-8 µg/ml
Cell membrane [16] = assay: Disruption of cell membrane in Escherichia coli ATCC25922 assessed as increase in intracellular ROS level by DCFH-DA staining based fluorescence analysis; details: dose 1-8 µg/ml
Staphylococcus aureus [17] = assay: Antibacterial activity against Staphylococcus aureus ATCC43300 infected in sepsis mouse model assessed as log reduction in bacterial load in spleen at 5 mg/kg pre-infected with bacteria for 1 hrs followed by compound administration at 12 hrs interval for 2 days relative to control; assay type: functional; details: time 2 day
[18] = Ratio of MBC for Escherichia coli ATCC25922 measured after 6 hrs in presence of 50% plasma to MBC for Escherichia coli ATCC25922 in Mueller Hinton Broth; assay type: functional
Acinetobacter baumannii = assay: Antibacterial activity against Acinetobacter baumannii ATCC19606 by broth microdilution assay; assay type: functional
Cell membrane [19] = assay: Disruption of cell membrane in Escherichia coli ATCC25922 assessed as increase in DNA leakage; details: dose 1-8 µg/ml
Cell membrane [20] = assay: Disruption of cell membrane in Staphylococcus aureus ATCC43300 assessed as increase in intracellular ROS level by DCFH-DA staining based fluorescence analysis; assay type: subcellular; details: dose 1-8 µg/ml
Cell membrane [21] = assay: Induction of inner membrane permeabilization in Escherichia coli ATCC25922 assessed as fold increase in fluorescence intensity at 8 microg/ml incubated for 20 mins by PI uptake assay relative to negative control; assay type: subcellular; details: dose 8.0 µg/ml
Staphylococcus aureus [22] = assay: Bactericidal activity against Staphylococcus aureus ATCC43300 in presence of 50% blood; assay type: functional
Staphylococcus aureus [23] = assay: Antibacterial activity against erythromycin susceptible Staphylococcus aureus ATCC25923 by broth microdilution assay; assay type: functional
Escherichia coli [24] = assay: Bactericidal activity against Escherichia coli ATCC25922 measured upto 24 hrs by time-kill kinetics assay; assay type: functional, organism-based; details: dose 1-8 µg/ml
Cell membrane [25] = assay: Disruption of cell membrane in Staphylococcus aureus ATCC43300 assessed as increase in protein leakage; assay type: subcellular; details: dose 1-8 µg/ml
Escherichia coli [26] = assay: Disruption of preformed biofilm in Escherichia coli ATCC25922 assessed as eradication of biofilm at 8 microg/ml relative to control; assay type: functional; details: dose 8 µg/ml
[27] = Ratio of MBC for Staphylococcus aureus ATCC43300 measured after 6 hrs in presence of 50% plasma to MBC for Staphylococcus aureus ATCC43300 in Mueller Hinton Broth; assay type: functional
Cell membrane [28] = assay: Disruption of cell membrane in Staphylococcus aureus ATCC43300 assessed as fold increase in protein leakage at 8 microg/ml relative to control; assay type: subcellular; details: dose 8.0 µg/ml
[29] = Toxicity in ip dosed BALB/c mouse assessed as maximum tolerated dose measured after 7 days; assay type: organism-based; details: in vivo, time 7 day
Cell membrane [30] = assay: Induction of cytoplasmic membrane depolarization in Escherichia coli ATCC25922 assessed as fold increase in fluorescence intensity at 8 microg/ml measured within 24 mins by DiSC3(5) dye-based fluorescence assay relative to negative control; assay type: subcellular; details: dose 8.0 µg/ml
Cell membrane [31] = assay: Disruption of cell membrane in Escherichia coli ATCC25922 assessed as increase in protein leakage; assay type: subcellular; details: dose 1-8 µg/ml
Escherichia coli [32] = assay: Antibacterial activity against Escherichia coli ATCC25922 infected in sepsis mouse model assessed as log reduction in bacterial load in spleen at 5 mg/kg pre-infected with bacteria for 1 hrs followed by compound administration at 12 hrs interval for 2 days relative to control; assay type: functional; details: time 2 day
Staphylococcus aureus [33] = assay: Antibacterial activity against Staphylococcus aureus ATCC43300 infected in sepsis mouse model assessed as reduction in liver damage at 5 to 10 mg/kg pre-infected with bacteria for 1 hrs followed by compound administration at 12 hrs interval for 2 days by H and E staining based analysis; assay type: functional, organism-based; details: dose 5-10 mg/kg, time 2.0 day
Staphylococcus aureus [34] = assay: Antibacterial activity against penicillin-resistant Staphylococcus aureus ATCC31007 by broth microdilution assay; assay type: functional
Escherichia coli [35] = assay: Antibacterial activity against Escherichia coli ATCC25922 infected in sepsis mouse model assessed as reduction in liver damage at 5 to 10 mg/kg pre-infected with bacteria for 1 hrs followed by compound administration at 12 hrs interval for 2 days by H and E staining based analysis; assay type: functional, organism-based; details: dose 5-10 mg/kg, time 2.0 day
Escherichia coli [36] = assay: Bactericidal activity against Escherichia coli ATCC25922 in Mueller Hinton Broth; assay type: functional

With `CCCCCCOc1cc[n+](CCCOc2ccc(/C=C/C(=O)c3ccc(OCCC[n+]4ccc(OCCCCCC)cc4)cc3)cc2)cc1.[Br-].[Br-]` the MBC (Escherichia coli [1]) was 8 mg/L, the Activity (Escherichia coli [2]) was “Active” and the “log(activity)” value (Escherichia coli [3]) was 2.52. The MIC (Pseudomonas aeruginosa) was 32 mg/L, the Ratio (Staphylococcus aureus [4]) was under 2 and the MBC (Escherichia coli [5]) was 32 mg/L. The Activity (Cell membrane [6]) was “Dose-dependent-effect”, the Activity (Cell membrane [7]) was “Dose-dependent-effect” and the Activity (Staphylococcus aureus [8]) was 100%. The Activity (Staphylococcus aureus [9]) was “Active”, the Activity (Staphylococcus aureus [10]) was “inactive” and the fold change (FC) (Cell membrane [11]) was 2.5. The survival at 168 h [12] was 100%, the MIC (Bacillus subtilis) was 1 mg/L and the “log(activity)” value (Staphylococcus aureus [13]) was 7.24. The fold change (FC) (Cell membrane [14]) was 12, the Activity (Cell membrane [15]) was “Dose-dependent-effect” and the Activity (Cell membrane [16]) was “Dose-dependent-effect”. For the same molecule, the “log(activity)” value (Staphylococcus aureus [17]) was 1.02, the Ratio [18] was under 4 and the MIC (Acinetobacter baumannii) was 16 mg/L. The Activity (Cell membrane [19]) was “Dose-dependent-effect”, the Activity (Cell membrane [20]) was “Dose-dependent-effect” and the fold change (FC) (Cell membrane [21]) was 1.9. The MIC (Staphylococcus aureus [22]) was 16 mg/L, the MIC (Staphylococcus aureus [23]) was 1 mg/L and the Activity (Escherichia coli [24]) was “Dose-dependent-effect”. The Activity (Cell membrane [25]) was “Dose-dependent-effect”, the Activity (Escherichia coli [26]) was 41.61% and the Ratio [27] was under 4. It also gave a fold change (FC) (Cell membrane [28]) of 7.5, an MTD at 168 h [29] of 50 mg/kg and a fold change (FC) (Cell membrane [30]) of 7.5. The Activity (Cell membrane [31]) was “Dose-dependent-effect”, the “log(activity)” value (Escherichia coli [32]) was 1.92 and the Activity (Staphylococcus aureus [33]) was “Active”. The MIC (Staphylococcus aureus [34]) was 1 mg/L, the Activity (Escherichia coli [35]) was “Active” and the MBC (Escherichia coli [36]) was 8 mg/L.
